pIC50: −log10 of the molar value.
Test system: A498 complex spheroids with HUVEC/MSC, growth
Assay: Anticancer human tumor A498 cell line growth inhibition [AhR];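 note: seven day exposure starting three days after spheroid seeding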;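 for viability, T/C: luminescence signal used as a surrogate for viable cells; luminescence viability scaled so 100% equals DMSO vehicle wells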
Conditions: for pIC50: curve of first compound; for viability, T/C: stronger effect = lower value; active = viability on the fitted dose curve at most 10% of control; inactive = the rest
Method in brief: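 Agents were dosed in half-log steps down from roughly clinical Cmax, or from 10 microM where Cmax was unknown, alone and with AhR antagonists. Read-out: percent test/control growth of tumor spheroids containing HUVEC and MSC stromal cells.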

[1] = second compound 0.1 µM, first compound 0.0316 µM
[2] = second compound 0.1 µM, first compound 0.1 µM
[3] = second compound 0.1 µM, first compound 0.316 µM
[4] = second compound 0.1 µM, first compound 1 µM
[5] = second compound 0.1 µM, first compound 3.16 µM
[6] = second compound 0.1 µM, first compound 10 µM
[7] = second compound 0.316 µM, first compound 0.0316 µM
[8] = second compound 0.316 µM, first compound 0.1 µM
[9] = second compound 0.316 µM, first compound 0.316 µM
[10] = second compound 0.316 µM, first compound 1 µM
[11] = second compound 0.316 µM, first compound 3.16 µM
[12] = second compound 0.316 µM, first compound 10 µM
[13] = second compound 1 µM, first compound 0.0316 µM
[14] = second compound 1 µM, first compound 0.1 µM
[15] = second compound 1 µM, first compound 0.316 µM
[16] = second compound 1 µM, first compound 1 µM
[17] = second compound 1 µM, first compound 3.16 µM
[18] = second compound 1 µM, first compound 10 µM
[19] = second compound 3.16 µM, first compound 0.0316 µM
[20] = second compound 3.16 µM, first compound 0.1 µM
[21] = second compound 3.16 µM, first compound 0.316 µM
[22] = second compound 3.16 µM, first compound 1 µM
[23] = second compound 3.16 µM, first compound 3.16 µM
[24] = second compound 3.16 µM, first compound 10 µM
[25] = second compound 10 µM, first compound 0.0316 µM
[26] = second compound 10 µM, first compound 0.1 µM
[27] = second compound 10 µM, first compound 0.316 µM
[28] = second compound 10 µM, first compound 1 µM
[29] = second compound 10 µM, first compound 3.16 µM
[30] = second compound 10 µM, first compound 10 µM

CC1COCCN1c1cc(C2(S(C)(=N)=O)CC2)nc(-c2ccnc3[nH]ccc23)n1 (stereo not given) + CC(CO)NC(=O)c1cc(-c2ccc(Cl)cc2)nn(-c2cnn(C)c2)c1=O
5.79: pIC50 (second compound 0.316 µM)
5.92: pIC50 (second compound 3.16 µM)
inactive: viability, T/C [1] 96.6% | viability, T/C [2] 94.9% | viability, T/C [3] 85.2% | viability, T/C [4] 66% | viability, T/C [5] 34.2% | viability, T/C [6] 18.2% | viability, T/C [7] 88.7% | viability, T/C [8] 89.6% | viability, T/C [9] 84% | viability, T/C [10] 65.1% | viability, T/C [11] 30.2% | viability, T/C [12] 19.7% | viability, T/C [13] 84.3% | viability, T/C [14] 86.8% | viability, T/C [15] 87% | viability, T/C [16] 53.5% | viability, T/C [17] 30.6% | viability, T/C [18] 17.1% | viability, T/C [19] 80.6% | viability, T/C [20] 81.8% | viability, T/C [21] 78.5% | viability, T/C [22] 52.1% | viability, T/C [23] 29.1% | viability, T/C [24] 16.5% | viability, T/C [25] 70.1% | viability, T/C [26] 65.7% | viability, T/C [27] 62.8% | viability, T/C [28] 46.9% | viability, T/C [29] 25.8% | viability, T/C [30] 17.7%
5.75: pIC50 (second compound 0.1 µM)
5.89: pIC50 (second compound 1 µM)
6.11: pIC50 (second compound 10 µM)

O=C(c1cc(Cc2n[nH]c(=O)c3ccccc23)ccc1F)N1CCN(C(=O)C2CC2)CC1 + Cc1cncc(-c2nc(NCCc3c[nH]c4ccccc34)c3ncn(C(C)C)c3n2)c1
< 5.00: pIC50 (second compound 0.1 µM) | pIC50 (second compound 0.316 µM) | pIC50 (second compound 1 µM) | pIC50 (second compound 3.16 µM)
inactive: viability, T/C [1] 96.9% | viability, T/C [2] 93.8% | viability, T/C [3] 89.2% | viability, T/C [4] 88.5% | viability, T/C [5] 89.2% | viability, T/C [6] 87.3% | viability, T/C [7] 102% | viability, T/C [8] 101% | viability, T/C [9] 97.9% | viability, T/C [10] 94.7% | viability, T/C [11] 93.8% | viability, T/C [12] 86% | viability, T/C [13] 92.8% | viability, T/C [14] 89.4% | viability, T/C [15] 93.8% | viability, T/C [16] 88.8% | viability, T/C [17] 84% | viability, T/C [18] 86% | viability, T/C [19] 56.3% | viability, T/C [20] 62.5% | viability, T/C [21] 59.8% | viability, T/C [22] 58.2% | viability, T/C [23] 54.3% | viability, T/C [24] 57.7%
> 7.50: pIC50 (second compound 10 µM)
active: viability, T/C [25] 4.54% | viability, T/C [26] 4.29% | viability, T/C [27] 4.31% | viability, T/C [28] 4.01% | viability, T/C [29] 4.31% | viability, T/C [30] 6.37%

Nc1ncn(C2CC(O)C(CO)S2)c(=O)n1 (stereo not given) + Cc1cncc(-c2nc(NCCc3c[nH]c4ccccc34)c3ncn(C(C)C)c3n2)c1
> 9.02: pIC50 (second compound 3.16 µM) | pIC50 (second compound 10 µM)
< 6.52: pIC50 (second compound 0.1 µM) | pIC50 (second compound 0.316 µM) | pIC50 (second compound 1 µM)
active: viability, T/C (second compound 10 µM, first compound 0.000949 µM) 5.79% | viability, T/C (second compound 10 µM, first compound 0.003 µM) 5.22% | viability, T/C (second compound 10 µM, first compound 0.00949 µM) 5.53% | viability, T/C (second compound 10 µM, first compound 0.03 µM) 6.62% | viability, T/C (second compound 10 µM, first compound 0.0949 µM) 4.93% | viability, T/C (second compound 10 µM, first compound 0.3 µM) 5.47%
inactive: viability, T/C (second compound 0.1 µM, first compound 0.000949 µM) 90.1% | viability, T/C (second compound 0.1 µM, first compound 0.003 µM) 89.7% | viability, T/C (second compound 0.1 µM, first compound 0.00949 µM) 92.5% | viability, T/C (second compound 0.1 µM, first compound 0.03 µM) 77.8% | viability, T/C (second compound 0.1 µM, first compound 0.0949 µM) 73.7% | viability, T/C (second compound 0.1 µM, first compound 0.3 µM) 63.3% | viability, T/C (second compound 0.316 µM, first compound 0.000949 µM) 94.1% | viability, T/C (second compound 0.316 µM, first compound 0.003 µM) 104% | viability, T/C (second compound 0.316 µM, first compound 0.00949 µM) 95% | viability, T/C (second compound 0.316 µM, first compound 0.03 µM) 86.9% | viability, T/C (second compound 0.316 µM, first compound 0.0949 µM) 80.6% | viability, T/C (second compound 0.316 µM, first compound 0.3 µM) 68.3% | viability, T/C (second compound 1 µM, first compound 0.000949 µM) 83.6% | viability, T/C (second compound 1 µM, first compound 0.003 µM) 86% | viability, T/C (second compound 1 µM, first compound 0.00949 µM) 80.4% | viability, T/C (second compound 1 µM, first compound 0.03 µM) 73.4% | viability, T/C (second compound 1 µM, first compound 0.0949 µM) 75.2% | viability, T/C (second compound 1 µM, first compound 0.3 µM) 68.2% | viability, T/C (second compound 3.16 µM, first compound 0.000949 µM) 32.3% | viability, T/C (second compound 3.16 µM, first compound 0.003 µM) 33.6% | viability, T/C (second compound 3.16 µM, first compound 0.00949 µM) 36.5% | viability, T/C (second compound 3.16 µM, first compound 0.03 µM) 27.1% | viability, T/C (second compound 3.16 µM, first compound 0.0949 µM) 29.6% | viability, T/C (second compound 3.16 µM, first compound 0.3 µM) 28.2%
